# Measured values taken from PubChem BioAssay (NCI).
#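 Grown in 96-well plates, cells were treated for 48 hours with each compound at five concentrations. Insufficient inhibition: endpoint recorded as highest concentration tested. Definition used: TGI = concentration required for complete inhibition of growth.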
# Experiments:
# Test in all cases: growth of human tumour cells (NCI), 48 h
# OVCAR-4 ovarian = system: OVCAR-4 ovarian
# SNB-75 CNS = system: SNB-75 CNS
# HCC-2998 colon = system: HCC-2998 colon
# M14 melanoma = system: M14 melanoma
# SN12C renal = system: SN12C renal
# A549 NSCLC = system: A549 NSCLC
# NCI-H23 lung = system: NCI-H23 lung
# HOP-62 NSCLC = system: HOP-62 NSCLC
# MCF7 breast = system: MCF7 breast
# SK-MEL-28 melanoma = system: SK-MEL-28 melanoma
# LOX IMVI melanoma = system: LOX IMVI melanoma
# KM12 colon = system: KM12 colon
# DU-145 prostate = system: DU-145 prostate
# HCT-15 colon = system: HCT-15 colon
# UACC-257 melanoma = system: UACC-257 melanoma
# HT29 colon = system: HT29 colon
# HOP-92 NSCLC = system: HOP-92 NSCLC
# MALME-3M melanoma = system: MALME-3M melanoma
# MDA-MB-435 = system: MDA-MB-435
# BT-549 breast = system: BT-549 breast
# OVCAR-3 ovarian = system: OVCAR-3 ovarian
# UO-31 renal = system: UO-31 renal
# RXF 393 renal = system: RXF 393 renal
# NCI-H226 lung = system: NCI-H226 lung
# EKVX NSCLC = system: EKVX NSCLC
# SW-620 colon = system: SW-620 colon
# HS 578T breast = system: HS 578T breast
# T-47D breast = system: T-47D breast
# SF-539 CNS = system: SF-539 CNS
# NCI/ADR-RES ovarian = system: NCI/ADR-RES ovarian
# NCI-H460 lung = system: NCI-H460 lung
# CAKI-1 renal = system: CAKI-1 renal
# RPMI-8226 leukemia = system: RPMI-8226 leukemia
# SK-OV-3 ovarian = system: SK-OV-3 ovarian
# SK-MEL-5 melanoma = system: SK-MEL-5 melanoma
# CCRF-CEM leukemia = system: CCRF-CEM leukemia
# K-562 leukemia = system: K-562 leukemia
# COLO 205 colon = system: COLO 205 colon
# OVCAR-8 ovarian = system: OVCAR-8 ovarian
# SNB-19 CNS = system: SNB-19 CNS
# SF-268 CNS = system: SF-268 CNS
# SK-MEL-2 melanoma = system: SK-MEL-2 melanoma
# A498 renal = system: A498 renal
# 786-0 renal = system: 786-0 renal
# ACHN renal = system: ACHN renal
# IGROV1 ovarian = system: IGROV1 ovarian
# U251 CNS = system: U251 CNS
# HCT-116 colon = system: HCT-116 colon
# MDA-MB-231 breast = system: MDA-MB-231 breast
# MDA-N = system: MDA-N
# UACC-62 melanoma = system: UACC-62 melanoma
# TK-10 renal = system: TK-10 renal
# OVCAR-5 ovarian = system: OVCAR-5 ovarian
# HL-60(TB) leukemia = system: HL-60(TB) leukemia
# SF-295 CNS = system: SF-295 CNS
# MOLT-4 leukemia = system: MOLT-4 leukemia
# PC-3 prostate = system: PC-3 prostate
# SR leukemia = system: SR leukemia
# NCI-H522 lung = system: NCI-H522 lung
structure (smiles),measurement,setting,value
C[C@]12CC[C@@H]3c4ccc(OS(N)(=O)=O)cc4CC[C@H]3[C@@H]1CCC2=O,TGI,OVCAR-4 ovarian,> 100 µM
same,TGI,SNB-75 CNS,> 100 µM
same,TGI,HCC-2998 colon,> 100 µM
same,TGI,M14 melanoma,> 100 µM
same,TGI,SN12C renal,> 100 µM
same,TGI,A549 NSCLC,> 100 µM
same,TGI,NCI-H23 lung,> 100 µM
same,TGI,HOP-62 NSCLC,> 100 µM
same,TGI,MCF7 breast,> 100 µM
same,TGI,SK-MEL-28 melanoma,> 100 µM
same,TGI,LOX IMVI melanoma,> 100 µM
same,TGI,KM12 colon,> 100 µM
same,TGI,DU-145 prostate,> 100 µM
same,TGI,HCT-15 colon,> 100 µM
same,TGI,UACC-257 melanoma,> 100 µM
same,TGI,HT29 colon,> 100 µM
same,TGI,HOP-92 NSCLC,> 100 µM
same,TGI,MALME-3M melanoma,> 100 µM
same,TGI,MDA-MB-435,> 100 µM
same,TGI,BT-549 breast,> 100 µM
same,TGI,OVCAR-3 ovarian,> 100 µM
same,TGI,UO-31 renal,> 100 µM
same,TGI,RXF 393 renal,> 100 µM
same,TGI,NCI-H226 lung,> 100 µM
same,TGI,EKVX NSCLC,> 100 µM
same,TGI,SW-620 colon,> 100 µM
same,TGI,HS 578T breast,> 100 µM
same,TGI,T-47D breast,> 100 µM
same,TGI,SF-539 CNS,> 100 µM
same,TGI,NCI/ADR-RES ovarian,> 100 µM
same,TGI,NCI-H460 lung,> 100 µM
same,TGI,CAKI-1 renal,> 100 µM
same,TGI,RPMI-8226 leukemia,> 100 µM
same,TGI,SK-OV-3 ovarian,> 100 µM
same,TGI,SK-MEL-5 melanoma,38.8 µM
same,TGI,CCRF-CEM leukemia,> 100 µM
same,TGI,K-562 leukemia,> 100 µM
same,TGI,COLO 205 colon,> 100 µM
same,TGI,OVCAR-8 ovarian,> 100 µM
same,TGI,SNB-19 CNS,> 100 µM
same,TGI,SF-268 CNS,> 100 µM
same,TGI,SK-MEL-2 melanoma,> 100 µM
same,TGI,A498 renal,> 100 µM
same,TGI,786-0 renal,> 100 µM
same,TGI,ACHN renal,> 100 µM
same,TGI,IGROV1 ovarian,> 100 µM
same,TGI,U251 CNS,> 100 µM
same,TGI,HCT-116 colon,> 100 µM
same,TGI,MDA-MB-231 breast,> 100 µM
same,TGI,MDA-N,> 100 µM
same,TGI,UACC-62 melanoma,> 100 µM
same,TGI,TK-10 renal,> 100 µM
same,TGI,OVCAR-5 ovarian,> 100 µM
same,TGI,HL-60(TB) leukemia,> 100 µM
same,TGI,SF-295 CNS,> 100 µM
CC(=O)CC1(O)C(=O)c2c(Br)sc(Br)c2C1=O,TGI,OVCAR-4 ovarian,36.4 µM
same,TGI,SNB-75 CNS,> 100 µM
same,TGI,HCC-2998 colon,32.7 µM
same,TGI,M14 melanoma,33.1 µM
same,TGI,SN12C renal,35.4 µM
same,TGI,A549 NSCLC,> 100 µM
same,TGI,NCI-H23 lung,39.2 µM
same,TGI,HOP-62 NSCLC,79.4 µM
same,TGI,MCF7 breast,> 100 µM
same,TGI,SK-MEL-28 melanoma,46 µM
same,TGI,LOX IMVI melanoma,35 µM
same,TGI,KM12 colon,> 100 µM
same,TGI,DU-145 prostate,> 100 µM
same,TGI,HCT-15 colon,45.7 µM
same,TGI,UACC-257 melanoma,41.4 µM
same,TGI,HT29 colon,53.8 µM
same,TGI,HOP-92 NSCLC,34.7 µM
same,TGI,MALME-3M melanoma,33.2 µM
same,TGI,MDA-MB-435,43.6 µM
same,TGI,BT-549 breast,35.8 µM
same,TGI,OVCAR-3 ovarian,31.7 µM
same,TGI,UO-31 renal,50.7 µM
same,TGI,RXF 393 renal,51.7 µM
same,TGI,NCI-H226 lung,> 100 µM
same,TGI,EKVX NSCLC,55.8 µM
same,TGI,SW-620 colon,55.6 µM
same,TGI,HS 578T breast,95 µM
same,TGI,MOLT-4 leukemia,> 100 µM
same,TGI,T-47D breast,83.9 µM
same,TGI,SF-539 CNS,49.3 µM
same,TGI,NCI/ADR-RES ovarian,> 100 µM
same,TGI,NCI-H460 lung,> 100 µM
same,TGI,CAKI-1 renal,32.1 µM
same,TGI,RPMI-8226 leukemia,> 100 µM
same,TGI,SK-OV-3 ovarian,> 100 µM
same,TGI,SK-MEL-5 melanoma,34.2 µM
same,TGI,CCRF-CEM leukemia,43 µM
same,TGI,K-562 leukemia,91 µM
same,TGI,COLO 205 colon,36.9 µM
same,TGI,PC-3 prostate,45.4 µM
same,TGI,OVCAR-8 ovarian,48 µM
same,TGI,SR leukemia,49.9 µM
same,TGI,SNB-19 CNS,> 100 µM
same,TGI,SF-268 CNS,82.4 µM
same,TGI,SK-MEL-2 melanoma,46.7 µM
same,TGI,A498 renal,> 100 µM
same,TGI,786-0 renal,57.6 µM
same,TGI,ACHN renal,> 100 µM
same,TGI,IGROV1 ovarian,35.9 µM
same,TGI,U251 CNS,53.5 µM
same,TGI,HCT-116 colon,35.8 µM
same,TGI,MDA-N,45.9 µM
same,TGI,UACC-62 melanoma,46 µM
same,TGI,TK-10 renal,56.8 µM
same,TGI,NCI-H522 lung,36.4 µM
same,TGI,OVCAR-5 ovarian,33.9 µM
same,TGI,HL-60(TB) leukemia,50.5 µM
same,TGI,SF-295 CNS,> 100 µM
